Experimental data published in ChEMBL document CHEMBL1201862, “PubChem BioAssay data set” (2004).
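How tested: cells in 96-well plates exposed to compound for 48 hours at five concentrations. GI50 marks 50% less growth.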 Calls of active or inactive are those of the source. Rule as the data show it: active = GI50 up to about 1.1 µM and inactive = higher. Peptide text beside a SMILES is read from it. * marks the point of attachment. Boc = CC(C)(C)OC(=O)*

Columns and labels:
Assay in all cases: NCI anticancer screen, dose series, 48 h
LOX IMVI = test system: LOX IMVI
UO-31 = test system: UO-31
RPMI-8226 = test system: RPMI-8226
SW-620 = test system: SW-620
OVCAR-4 = test system: OVCAR-4
IGROV-1 = test system: IGROV-1
ACHN = test system: ACHN
RXF 393 = test system: RXF 393
SF-268 = test system: SF-268
MDA-N = test system: MDA-N
SF-539 = test system: SF-539
MCF7 = test system: MCF7
A498 = test system: A498
HOP-92 = test system: HOP-92
SR = test system: SR
MDA-MB-435 = test system: MDA-MB-435
K562 = test system: K562
NCI-H460 = test system: NCI-H460
EKVX = test system: EKVX
UACC-62 = test system: UACC-62

Row | Compound | GI50 (LOX IMVI) | GI50 (UO-31) | GI50 (RPMI-8226) | GI50 (SW-620) | GI50 (OVCAR-4) | GI50 (IGROV-1) | GI50 (ACHN) | GI50 (RXF 393) | GI50 (SF-268) | GI50 (MDA-N) | GI50 (SF-539) | GI50 (MCF7) | GI50 (A498) | GI50 (HOP-92) | GI50 (SR) | GI50 (MDA-MB-435) | GI50 (K562) | GI50 (NCI-H460) | GI50 (EKVX) | GI50 (UACC-62)
1 | Cc1cccc2c1CC1(Cc3c(C)cccc3C1=O)C2=O | > 100 µM (inactive) | > 100 µM (inactive) | > 100 µM (inactive) | > 100 µM (inactive) | > 100 µM (inactive) | > 100 µM (inactive) | > 100 µM (inactive) | > 100 µM (inactive) | > 100 µM (inactive) | > 100 µM (inactive) | > 100 µM (inactive) | > 100 µM (inactive) | > 100 µM (inactive) | > 100 µM (inactive) | > 100 µM (inactive) | > 100 µM (inactive) | > 100 µM (inactive) | > 100 µM (inactive) | > 100 µM (inactive) | –
2 | C=CC(Br)(CBr)CCC1OC1(C)C (stereo not drawn) | 5.47 µM (inactive) | 18.2 µM (inactive) | 20.4 µM (inactive) | 13.1 µM (inactive) | 16.3 µM (inactive) | 13.2 µM (inactive) | 18.2 µM (inactive) | 9.23 µM (inactive) | 16.7 µM (inactive) | 11.3 µM (inactive) | 19.5 µM (inactive) | 14.1 µM (inactive) | 21.7 µM (inactive) | 14.4 µM (inactive) | 26.9 µM (inactive) | 17.3 µM (inactive) | 37.9 µM (inactive) | 14.2 µM (inactive) | 20.3 µM (inactive) | –
3 | CC1=CC(=O)C2=C(C)CCC3C(C)C(=O)OC3C12 (stereo not drawn) | > 100 µM (inactive) | > 100 µM (inactive) | > 100 µM (inactive) | > 100 µM (inactive) | > 100 µM (inactive) | > 100 µM (inactive) | > 100 µM (inactive) | > 100 µM (inactive) | > 100 µM (inactive) | > 100 µM (inactive) | > 100 µM (inactive) | > 100 µM (inactive) | > 100 µM (inactive) | > 100 µM (inactive) | 48 µM (inactive) | > 100 µM (inactive) | – | > 100 µM (inactive) | > 100 µM (inactive) | > 100 µM (inactive)
4 | COc1cc(/C=C2\C(=O)N(c3cccc(NC(C)=O)c3)C(c3ccccc3)S2(=O)=O)cc(OC)c1OC (stereo not drawn) | 54.2 µM (inactive) | 50.5 µM (inactive) | 40.7 µM (inactive) | 56.2 µM (inactive) | 70.5 µM (inactive) | > 100 µM (inactive) | > 100 µM (inactive) | > 100 µM (inactive) | – | 40.4 µM (inactive) | 48.3 µM (inactive) | 31 µM (inactive) | > 100 µM (inactive) | > 100 µM (inactive) | 24.9 µM (inactive) | 47.9 µM (inactive) | 31.3 µM (inactive) | 67.5 µM (inactive) | 74.1 µM (inactive) | 80.9 µM (inactive)
5 | CCN(CCCl)c1cc(CN(C)C)cc(NC(=O)c2ccc(C(=O)Nc3cccc(N(CCCl)NN)c3)cc2)c1 | < 0.01 µM (active) | 0.462 µM (active) | 0.0492 µM (active) | < 0.01 µM (active) | 0.0136 µM (active) | 0.0225 µM (active) | < 0.01 µM (active) | 0.0285 µM (active) | 0.0129 µM (active) | 0.0301 µM (active) | 0.16 µM (active) | < 0.01 µM (active) | 0.197 µM (active) | 0.0789 µM (active) | < 0.01 µM (active) | 0.016 µM (active) | 0.014 µM (active) | < 0.01 µM (active) | – | < 0.01 µM (active)
6 | N#C[BH2-][n+]1cn(C2CC(O)C(COP(=O)(O)OC3CC(n4c[n+]([BH2-]C#N)c5c(=O)[nH]c(N)nc54)OC3CO)O2)c2nc(N)[nH]c(=O)c21 (stereo not drawn) | – | > 100 µM (inactive) | > 100 µM (inactive) | > 100 µM (inactive) | > 100 µM (inactive) | > 100 µM (inactive) | > 100 µM (inactive) | > 100 µM (inactive) | > 100 µM (inactive) | > 100 µM (inactive) | > 100 µM (inactive) | > 100 µM (inactive) | > 100 µM (inactive) | > 100 µM (inactive) | > 100 µM (inactive) | > 100 µM (inactive) | 10 µM (inactive) | > 100 µM (inactive) | > 100 µM (inactive) | > 100 µM (inactive)
7 | O=C(O)C(O)c1ccc(F)cc1 (stereo not drawn) | > 100 µM (inactive) | > 100 µM (inactive) | > 100 µM (inactive) | > 100 µM (inactive) | > 100 µM (inactive) | > 100 µM (inactive) | > 100 µM (inactive) | > 100 µM (inactive) | > 100 µM (inactive) | > 100 µM (inactive) | – | > 100 µM (inactive) | > 100 µM (inactive) | > 100 µM (inactive) | > 100 µM (inactive) | > 100 µM (inactive) | > 100 µM (inactive) | > 100 µM (inactive) | > 100 µM (inactive) | > 100 µM (inactive)
8 | O=C1c2cc3c(cc2CC12Cc1ccc4c(c1C2=O)CCCC4)CCCC3 (stereo not drawn) | > 100 µM (inactive) | > 100 µM (inactive) | > 100 µM (inactive) | > 100 µM (inactive) | 25.9 µM (inactive) | 80.7 µM (inactive) | 48.1 µM (inactive) | 42 µM (inactive) | 50.2 µM (inactive) | > 100 µM (inactive) | 36.1 µM (inactive) | > 100 µM (inactive) | 21.4 µM (inactive) | 21.4 µM (inactive) | > 100 µM (inactive) | > 100 µM (inactive) | > 100 µM (inactive) | 97.9 µM (inactive) | > 100 µM (inactive) | –
9 | CC(NC(=O)OC(C)(C)C)C(=O)NC(Cc1ccccc1)C(=O)NCC(=O)O (stereo not drawn) (Boc-Ala-Phe-Gly-OH; configuration not given here) | > 100 µM (inactive) | > 100 µM (inactive) | > 100 µM (inactive) | > 100 µM (inactive) | – | > 100 µM (inactive) | > 100 µM (inactive) | > 100 µM (inactive) | > 100 µM (inactive) | > 100 µM (inactive) | > 100 µM (inactive) | > 100 µM (inactive) | > 100 µM (inactive) | > 100 µM (inactive) | > 100 µM (inactive) | > 100 µM (inactive) | > 100 µM (inactive) | > 100 µM (inactive) | > 100 µM (inactive) | > 100 µM (inactive)
10 | Nc1cc(CO)cc(Nc2c3ccccc3nc3occc23)c1 | 36.6 µM (inactive) | 32.2 µM (inactive) | 26.5 µM (inactive) | – | 17.1 µM (inactive) | 24.5 µM (inactive) | 29.8 µM (inactive) | – | 21.3 µM (inactive) | 25.9 µM (inactive) | 24.8 µM (inactive) | 20 µM (inactive) | 51.4 µM (inactive) | 29.1 µM (inactive) | 3.91 µM (inactive) | 10.5 µM (inactive) | – | 21.2 µM (inactive) | 67.5 µM (inactive) | 20.8 µM (inactive)
11 | CC(C)(CC(=O)Nc1ccccc1)C(=O)O | > 100 µM (inactive) | > 100 µM (inactive) | > 100 µM (inactive) | > 100 µM (inactive) | > 100 µM (inactive) | > 100 µM (inactive) | > 100 µM (inactive) | – | – | > 100 µM (inactive) | > 100 µM (inactive) | > 100 µM (inactive) | > 100 µM (inactive) | > 100 µM (inactive) | > 100 µM (inactive) | > 100 µM (inactive) | > 100 µM (inactive) | > 100 µM (inactive) | > 100 µM (inactive) | > 100 µM (inactive)
12 | COc1cc2c3c(c1O)-c1c(ccc(OC)c1OC)CC3N(C)CC2 (stereo not drawn) | > 100 µM (inactive) | > 100 µM (inactive) | > 100 µM (inactive) | > 100 µM (inactive) | > 100 µM (inactive) | > 100 µM (inactive) | > 100 µM (inactive) | > 100 µM (inactive) | > 100 µM (inactive) | > 100 µM (inactive) | > 100 µM (inactive) | > 100 µM (inactive) | > 100 µM (inactive) | > 100 µM (inactive) | > 100 µM (inactive) | > 100 µM (inactive) | – | > 100 µM (inactive) | > 100 µM (inactive) | > 100 µM (inactive)
13 | C/C=C1/CN2CCC34c5ccccc5N(C)C23C2CC1C4(C(=O)OC)C(OC(C)=O)O2 (stereo not drawn) | > 100 µM (inactive) | > 100 µM (inactive) | > 100 µM (inactive) | > 100 µM (inactive) | > 100 µM (inactive) | > 100 µM (inactive) | > 100 µM (inactive) | – | > 100 µM (inactive) | > 100 µM (inactive) | > 100 µM (inactive) | > 100 µM (inactive) | > 100 µM (inactive) | > 100 µM (inactive) | > 100 µM (inactive) | > 100 µM (inactive) | > 100 µM (inactive) | > 100 µM (inactive) | > 100 µM (inactive) | > 100 µM (inactive)
14 | O=C(NCCCl)Nc1ccccc1 | > 100 µM (inactive) | > 100 µM (inactive) | > 100 µM (inactive) | > 100 µM (inactive) | > 100 µM (inactive) | > 100 µM (inactive) | > 100 µM (inactive) | > 100 µM (inactive) | > 100 µM (inactive) | > 100 µM (inactive) | – | > 100 µM (inactive) | > 100 µM (inactive) | > 100 µM (inactive) | > 100 µM (inactive) | > 100 µM (inactive) | > 100 µM (inactive) | > 100 µM (inactive) | > 100 µM (inactive) | > 100 µM (inactive)
